The conditions of series [1]: imidazoquinolines such as 3M-052; reference (9); cited from earlier work.
Series [2] concerns the target T1, human TLR8 (Homo sapiens, UniProt Q9NR97).
T1 sequence (Q9NR97 27-1041): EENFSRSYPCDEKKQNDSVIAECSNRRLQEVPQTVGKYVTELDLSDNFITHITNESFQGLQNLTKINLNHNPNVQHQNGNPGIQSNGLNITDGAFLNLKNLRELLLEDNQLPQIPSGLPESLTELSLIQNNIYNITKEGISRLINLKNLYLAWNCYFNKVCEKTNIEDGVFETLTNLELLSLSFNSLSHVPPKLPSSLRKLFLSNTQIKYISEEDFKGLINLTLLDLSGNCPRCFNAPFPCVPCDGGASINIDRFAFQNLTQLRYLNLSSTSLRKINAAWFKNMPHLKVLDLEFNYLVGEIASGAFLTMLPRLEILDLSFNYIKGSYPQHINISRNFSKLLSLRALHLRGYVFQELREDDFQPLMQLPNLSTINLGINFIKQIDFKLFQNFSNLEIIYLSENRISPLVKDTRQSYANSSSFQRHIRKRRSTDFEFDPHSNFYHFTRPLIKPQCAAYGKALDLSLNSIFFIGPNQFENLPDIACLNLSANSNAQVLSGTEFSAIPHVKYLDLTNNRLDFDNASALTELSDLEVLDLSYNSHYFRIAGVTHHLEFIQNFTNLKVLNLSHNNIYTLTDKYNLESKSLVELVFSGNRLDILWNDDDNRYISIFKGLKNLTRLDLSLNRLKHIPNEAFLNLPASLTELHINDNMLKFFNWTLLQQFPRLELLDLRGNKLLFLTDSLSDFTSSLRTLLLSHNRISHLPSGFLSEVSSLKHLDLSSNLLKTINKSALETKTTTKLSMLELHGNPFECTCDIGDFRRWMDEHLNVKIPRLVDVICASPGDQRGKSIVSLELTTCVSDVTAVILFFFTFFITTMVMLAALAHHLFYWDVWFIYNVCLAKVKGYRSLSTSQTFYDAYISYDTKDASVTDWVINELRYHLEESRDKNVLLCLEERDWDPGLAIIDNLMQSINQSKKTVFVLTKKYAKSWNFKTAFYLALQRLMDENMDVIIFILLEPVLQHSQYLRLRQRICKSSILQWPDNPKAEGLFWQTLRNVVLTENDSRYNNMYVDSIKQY
The settings on record: in vitro; reference (5); cited from earlier work.

Series [3] is described as follows: Adsorption to Alhydrogel® (aluminum oxyhydroxide): unbound material assayed in centrifuged supernatant. The format is physicochemical. The settings on record: for TLR Agonist Conc. In Supernatant (T = 16 wks): storage at 5° C.; for TLR Agonist Conc. In Supernatant (T = 16 wks) / TLR Agonist Conc. In Supernatant (T = 0): the ligand itself, in combinations first value = 3M-052. The method, then: Adjuvant formulation characterization and stability. Aqueous nanosuspensions were characterized for particle size by dynamic light scattering (DLS) using the Malvern Instruments (Worcestershire, UK) Zetasizer Nano-S or —ZS. Aqueous nanosuspensions were diluted 1:10 or 1:100 fold in water in a polystyrene cuvette prior to analysis, which consisted of three measurements resulting in a scattering intensity-biased average diameter value reported as the Z-ave. Zeta potential was measured using the Zetasizer Nano-ZS using a disposable capillary cell, with nine consecutive measurements collected from each sample prepared at 1:10 dilution in water. In general, 3M-052 concentration was measured by UV absorbance at 322.5 nm after diluting formulations 1:20 into ethanol:HCl (98:2 v:v) and comparing to a standard curve. The dilution into organic solvent removes potential interference from light scattering of the nanosuspension particles. However, for the 3M-052 binding isotherm, where maximum sensitivity was desired, no dilution was performed for the samples or the standards. Alternatively, 3M-052 concentration was determined by reverse phase HPLC with charged aerosol detection. TLR9 CpG control concentration was measured by UV absorbance at 260 nm after 1:20 dilution into ethanol:HCl. GLA concentration was measured by reverse-phase HPLC with an C18 column (Atlantis T3 or Agilent XBridge) and charged aerosol detection (CAD) using a methanol:chloroform:water mobile gradient as described previously (6). To detect unbound TLR ligand, alum-containing formulations were centrifuged briefly as indicated and the supernatant assayed by UV absorbance or HPLC-CAD. Depending on experiment, centrifugation time was 2-5 min at 2,000-16,000×g. In some experiments (FIG. 2D and Table 4), to remove the influence of saline or buffer salts on the sedimentation of TLR agonists in aluminum salt preparations, aluminum salts were first centrifuged and the supernatants removed and replaced with water; this process was repeated for another wash prior to employing the aluminum salts in the binding studies.
Antigen adsorption to aluminum salts. Binding efficiency of 3M-052 and ID93 or HIV gp120 antigen to Alhydrogel® and AdjuPhos® was determined by UV-Vis Spectroscopy and SDS-PAGE with silver stain. 1-mL of formulation was prepared by mixing saline diluent, antigen, 3M-052-AF, and/or aluminum salt. To determine HIV gp120 antigen adsorption, 30 μl of sample supernatant was mixed with 10 μl of 4× reducing or non-reducing LDS Sample Buffer, following which 20-25 μl was loaded into a 10-lane SDS-PAGE gel with 15 μl of SeeBlue2 Prestained Standard. To determine ID93 adsorption, 45 μl of sample supernatant was mixed with 15 μl of 4× reducing LDS Sample Buffer, following which 25 μl was loaded into a 10-lane SDS-PAGE gel with 15 μl of SeeBlue2 Prestained Standard. The gels were run for 55 minutes at 190 V and then placed into a fixing solution of 50:40:10 EtOH:CH3COOH:H2O for overnight. […]
To determine the adsorption capacity of Alhydrogel® for 3M-052-AF, the nanosuspension at various concentrations was mixed with aluminum oxyhydroxide and allowed to sit for ˜30 min with intermittent vortexing, followed by centrifugation such that the aluminum particles pelleted. […] The adsorption stability of 3M-052-AF on Alhydrogel® over time was evaluated by assaying samples for unbound 3M-052 before and after storage at 5° C. for 16 wks. […]

The target of series [4] is T2, human TLR7 (Homo sapiens, UniProt Q9NYK1).
T2 sequence (Q9NYK1 27-1049): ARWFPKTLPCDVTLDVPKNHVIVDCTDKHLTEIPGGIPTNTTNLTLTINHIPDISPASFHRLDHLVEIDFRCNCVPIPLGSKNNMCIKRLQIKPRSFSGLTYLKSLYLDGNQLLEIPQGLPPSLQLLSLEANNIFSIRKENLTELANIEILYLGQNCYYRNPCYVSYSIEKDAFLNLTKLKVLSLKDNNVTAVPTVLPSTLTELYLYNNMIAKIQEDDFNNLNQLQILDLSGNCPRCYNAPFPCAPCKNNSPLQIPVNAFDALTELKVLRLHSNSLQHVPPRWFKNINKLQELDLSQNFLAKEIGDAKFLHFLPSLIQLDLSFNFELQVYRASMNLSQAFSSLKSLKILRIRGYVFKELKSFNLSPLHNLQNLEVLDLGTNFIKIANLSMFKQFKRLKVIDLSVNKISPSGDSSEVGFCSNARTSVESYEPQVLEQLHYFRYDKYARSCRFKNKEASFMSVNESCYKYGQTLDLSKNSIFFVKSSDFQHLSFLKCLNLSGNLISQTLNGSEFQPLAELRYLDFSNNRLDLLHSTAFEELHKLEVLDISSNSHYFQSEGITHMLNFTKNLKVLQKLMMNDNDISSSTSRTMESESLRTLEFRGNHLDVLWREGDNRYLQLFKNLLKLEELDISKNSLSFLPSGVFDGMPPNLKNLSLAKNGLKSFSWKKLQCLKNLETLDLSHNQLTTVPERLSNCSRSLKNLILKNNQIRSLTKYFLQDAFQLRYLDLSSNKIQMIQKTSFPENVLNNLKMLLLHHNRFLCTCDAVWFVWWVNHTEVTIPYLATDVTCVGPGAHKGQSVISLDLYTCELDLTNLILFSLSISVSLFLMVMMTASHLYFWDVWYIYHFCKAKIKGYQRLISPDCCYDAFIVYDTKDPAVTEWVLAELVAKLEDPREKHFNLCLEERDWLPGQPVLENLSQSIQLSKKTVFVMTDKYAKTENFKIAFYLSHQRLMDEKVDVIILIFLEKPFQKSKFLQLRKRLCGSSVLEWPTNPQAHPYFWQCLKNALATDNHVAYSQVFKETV
Conditions: in vitro; reference (5); cited from earlier work.

As to `CCCCCCCCCCCCCCCCCC(=O)NCCCCOn1c(CCCC)nc2c(N)nc3ccccc3c21` [3M-052, N-(4-{[4-amino-2-butyl-1H-imidazo[4,5-c]quinolin-1-yl]oxy}butyl)octadecanamide], in series [1], the pKa (in general, the pH at which an ionisable group is half protonated) is about 7. Also, the “activation of human TLR8” value in series [2] is on record as “activates”. The “effect of other TLR ligands on adsorption of 3M-052 to aluminum oxyhydroxide” value in series [3] (co-adsorbed GLA or TLR9 CpG control (Table 2)) is listed as “did not appear to interfere”. Moreover, in series [3] (no aluminum salt (control)), the “TLR Agonist Conc. In Supernatant (T = 16 wks)” value was determined as 74 ± 1 µg/mL and the “TLR Agonist Conc. In Supernatant (T = 0)” value came to 94 ± 1 µg/mL. Also, in series [3] (with Alhydrogel®), the “TLR Agonist Conc. In Supernatant (T = 16 wks)” value came to 10 ± 1 µg/mL and the “TLR Agonist Conc. In Supernatant (T = 0)” value is 11 ± 1 µg/mL. Besides, the “activation of human TLR7” value in series [4] is given as “activates”.
